The structures appear in SMILES notation. Bounds are passed on as bounds.

We go through 41 compounds from US20240174680A1, “CDK2 INHIBITORS AND METHODS OF USING THE SAME” (Cedilla Therapeutics, Inc., priority 2021, published 2024).

The experiment addresses CDK2/Cyclin E1 (Homo sapiens, UniProt P24941). Briefly: CDK2/Cyclin E1 Caliper LabChip EZ Reader mobility shift assay. It is filed as biochemical. On the set-up: purchased Eurofins 14-475. The following applies: read-out: Caliper Assay (CDK2/CCNE1): IC50. Here is the method:
Inhibition of CDK2/Cyclin E1 activity in the presence of compounds of the present disclosure was evaluated using a Caliper LabChip® EZ Reader mobility shift assay. In the assay, CDK2/Cyclin E1 (Eurofins, 14-475) catalyzed the phosphorylation of a fluorescently tagged peptide 5-FAM-QSPKKG-CONH2 (PerkinElmer, FL Peptide 18) which induced a difference in capillary electrophoresis mobility. The peptide substrate and product were measured, and the conversion ratio was used to determine the inhibition (as % activity and IC50 values) of CDK2/Cyclin E1. Reactions contained 50 mM HEPES pH 7.5, 10 mM MgCl2, 1 mM EDTA, 2 mM DTT, 0.01% Brij35, 0.5 mg/mL BSA, 0.1% DMSO, 2.5 nM CDK2/Cyclin E1, 100 μM ATP, and 1.5 μM fluorescent peptide substrate.
Dose titrations of inhibitors in 100% DMSO were combined with 3.25 nM CDK2/Cyclin E1 and 130 μM of ATP in reaction buffer. The mixtures were incubated for 30 minutes before the addition of fluorescent peptide substrate to initiate the kinase reaction. The final conditions were 2.5 nM CDK2/Cyclin E1, 100 μM ATP, and 1.5 μM fluorescent peptide. The reactions were stopped after 100 minutes with the addition of EDTA (400 mM final EDTA concentration). The stopped reactions were analyzed on a Caliper LabChip® EZ Reader II. The conversion ratios were normalized to yield % activity, plotted against compound concentration, and fit to a four-parameter equation to determine the IC50 for each compound.
Regarding `C[C@@H](OCc1ccccc1)[C@H](NC(=O)[C@@H]1CN(C(=O)c2cnn(Cc3ccccc3)c2)CC12CN(C(=O)[C@H]1CC1(C)C)C2)C(=O)N(C)C` [I-409], the IC50 was ≤ 10 nM.

Regarding `CNC(=O)[C@@H](NC(=O)[C@H]1CN(C(=O)c2cnn(CC3CCN(C)CC3)c2)CC12CN(C(=O)[C@H]1CC1(C)C)C2)[C@@H](C)OCc1ccccc1` [I-23B], the IC50 is > 10000 nM.

Consider `Cc1cc(C(=O)N2CC(C(=O)N[C@H](C(=O)N3CCCCC3)[C@@H](C)OCC3CCCCC3)C3(C2)CN(C(=O)[C@H]2CC2(C)C)C3)sn1` (some centres unmarked) [I-311], for which the IC50 is ≤ 10 nM.

Take `CNC(=O)[C@@H](NC(=O)[C@@H]1CN(C(=O)c2cnn(Cc3ccccc3)c2)CC12CN(C(=O)[C@H]1CC1(C)C)C2)[C@@H](C)OCc1cccnc1` [I-247]: the IC50 is 100 to 1000 nM.

Take `CNC(=O)[C@@H](NC(=O)[C@H]1CN(C(=O)c2cnn(Cc3ccccc3)c2)CC12CN(C(=O)CC1(COC)CC1)C2)[C@@H](C)OCc1ccccc1` [I-82B]: the IC50 was > 10000 nM.

On to `C[C@@H](OCc1ccccc1)[C@H](NC(=O)C1CN(C(=O)c2cnn(Cc3ccccc3)c2)CC12CN(C(=O)[C@H]1CC1(C)C)C2)C(=O)NCCN` (some centres unmarked) [I-31], for which the IC50 was 100 to 1000 nM.

For `CNC(=O)[C@@H](NC(=O)[C@@H]1CN(C(=O)c2c[nH]c(=O)s2)CC12CN(C(=O)[C@H]1CC1(C)C)C2)[C@@H](C)OCC1CCCCC1` [I-184], the IC50 lay within 100 to 1000 nM.

Regarding `CNC(=O)[C@@H](NC(=O)[C@H]1CN(C(=O)c2cnn(Cc3ccccc3)c2)CC12CN(C(=O)C1(F)CC1)C2)[C@@H](C)OCc1ccccc1` [I-71B], the IC50 was > 10000 nM.

As for `C[C@@H](OCC1CCCCC1)[C@@H](CO)NC(=O)[C@@H]1CN(C(=O)c2cncs2)CC12CN(C(=O)[C@H]1CC1(C)C)C2` [I-307], the IC50 was 10 to 100 nM.

For `CC1(C)C[C@@H]1C(=O)N1CC2(CN(C(=O)c3cnn(Cc4ccccc4)c3)C[C@H]2C(=O)N2CCN(CC3CCCCC3)CC2)C1` [I-237], the IC50 lay in the range of 100 to 1000 nM.

As to `CNC(=O)[C@@H](NC(=O)[C@@H]1CN(C(=O)c2cnn(Cc3ccccc3)c2)CC12CN(C(=O)CC1(COC)CC1)C2)[C@@H](C)OCc1ccccc1` [I-82A], the IC50 is > 10000 nM.

Consider `CNC(=O)[C@@H](NC(=O)[C@H]1CN(C(=O)c2cnc(C3CC3)s2)CC12CN(C(=O)[C@H]1CC1(C)C)C2)[C@@H](C)OCC1CCCCC1` [I-178B], for which the IC50 is > 10000 nM.

With `CNC(=O)[C@@H](NC(=O)[C@@H]1CN(Cc2cnc[nH]2)CC12CN(C(=O)[C@H]1CC1(C)C)C2)[C@@H](C)OCc1ccccc1` [I-77A, (S)-6-((1H-imidazol-5-yl)methyl)-N-((2S,3R)-3-(benzyloxy)-1-(methylamino)-1-oxobutan-2-yl)-2-((S)-2,2-dimethylcyclopropane-1-carbonyl)-2,6-diazaspiro[3.4]octane-8-carboxamide], the IC50 was > 10000 nM.

Turning to `CNC(=O)[C@@H](NC(=O)[C@H]1CN(C(=O)c2cnn(Cc3ccccc3)c2)CC12CN(C(=O)C1(C(F)(F)F)CC1)C2)[C@@H](C)OCc1ccccc1` [I-108B], the IC50 was > 10000 nM.

Consider `CNC(=O)[C@@H](NC(=O)[C@@H]1CN(C(=O)c2ccncc2)CC12CN(C(=O)[C@H]1CC1(C)C)C2)[C@@H](C)OCc1ccccc1` [I-46A], for which the IC50 was > 10000 nM.

Take `CNC(=O)[C@@H](NC(=O)[C@H]1CN(C(=O)c2cnn(Cc3ccc(F)cc3)c2)CC12CN(C(=O)[C@H]1CC1(C)C)C2)[C@@H](C)OCc1ccc(F)cc1` [I-136B]: the IC50 fell in the range of 100 to 1000 nM.

Regarding `C[C@@H](O)[C@H](NC(=O)[C@@H]1CN(C(=O)c2cnn(C)c2)CC12CN(C(=O)[C@H]1CC1(C)C)C2)C(=O)N1CCCCC1` [I-305], the IC50 was > 10000 nM.

Take `CNC(=O)[C@@H](NC(=O)[C@H]1CN(C(=O)c2cnn(Cc3ccccc3)c2)CC12CN(C(=O)C1C(C)(C)C1(C)C)C2)[C@@H](C)OCc1ccccc1` [I-89B]: the IC50 is > 10000 nM.

As to `CNC(=O)C(NC(=O)[C@@H]1CN(C(=O)c2cncs2)CC12CN(C(=O)C(C)(C)C1CC1)C2)c1cccc(C2CCCCC2)n1` (stereo partly drawn) [I-410, (8S)—N-(1-(6-cyclohexylpyridin-2-yl)-2-(methylamino)-2-oxoethyl)-2-(2-cyclopropyl-2-methylpropanoyl)-6-(thiazole-5-carbonyl)-2,6-diazaspiro[3.4]octane-8-carboxamide], the IC50 lay within 10 to 100 nM.

On to `C[C@@H](OCc1ccccc1)[C@H](NC(=O)[C@H]1CN(C(=O)c2cnn(Cc3ccccc3)c2)CC12CN(C(=O)[C@H]1CC1(C)C)C2)C(N)=O` [I-176B], for which the IC50 fell in the range of 1000 to 10000 nM.

For `CC1(C)C[C@@H]1C(=O)N1CC2(CN(C(=O)c3cnn(Cc4ccccc4)c3)C[C@@H]2C(=O)N2CCC(Cc3ccccc3)CC2)C1` [I-58B], the IC50 is 1000 to 10000 nM.

For the compound `C[C@@H](OCC1CCCCC1)[C@H](NC(=O)[C@@H]1CN(C(=O)c2cnn(Cc3ccccc3)c2)CC12CN(C(=O)[C@H]1CC1(C)C)C2)C(=O)N1CCC(c2ncc[nH]2)CC1` [I-446], the IC50 was ≤ 10 nM.

Turning to `CNC(=O)[C@@H](NC(=O)[C@H]1CN(C(=O)c2c[nH]c3ccccc23)CC12CN(C(=O)[C@H]1CC1(C)C)C2)[C@@H](C)OCc1ccccc1` [I-72B], the IC50 is > 10000 nM.

On to `CNC(=O)[C@@H](NC(=O)[C@@H]1CN(C(=O)c2cnn(CC3CCNCC3)c2)CC12CN(C(=O)[C@H]1CC1(C)C)C2)[C@@H](C)OCc1ccccc1` [I-19A], for which the IC50 is 100 to 1000 nM.

For the compound `CNC(=O)[C@@H](NC(=O)[C@@H]1CN(C(=O)c2cnc(C3CC3)s2)CC12CN(C(=O)[C@H]1CC1(C)C)C2)[C@@H](C)OCC1CCCCC1` [I-178A], the IC50 lay in the range of 100 to 1000 nM.

In the case of `CNC(=O)[C@@H](NC(=O)[C@H]1CN(C(=O)c2cnc(C(C)(C)C)s2)CC12CN(C(=O)[C@H]1CC1(C)C)C2)[C@@H](C)OCC1CCCCC1` [I-229B], the IC50 was > 10000 nM.

For `CNC(=O)[C@@H](NC(=O)[C@H]1CN(C(=O)c2cnn(Cc3ccccc3)c2)CC12CN(C(=O)[C@H]1CC1(C)C)C2)[C@@H](C)OCC1CCC1` [I-144B], the IC50 fell in the range of 1000 to 10000 nM.

`CNC(=O)C(NC(=O)[C@@H]1CN(C(=O)c2cncs2)CC12CN(C(=O)[C@H]1CC1(C)C)C2)c1ccc(C)nn1` (some centres unmarked) [I-420]: the IC50 is > 10000 nM.

On to `CNC(=O)[C@H](COCc1ccccc1)NC(=O)[C@@H]1CN(C(=O)c2cnn(Cc3ccccc3)c2)CC12CN(C(=O)C1(C(F)(F)F)CC1)C2` [I-113A, (S)-6-(1-benzyl-1H-pyrazole-4-carbonyl)-N—((S)-3-(benzyloxy)-1-(methylamino)-1-oxopropan-2-yl)-2-(1-(trifluoromethyl)cyclopropane-1-carbonyl)-2,6-diazaspiro[3.4]octane-8-carboxamide], for which the IC50 was 1000 to 10000 nM.

For the compound `CC1(C)C[C@@H]1C(=O)N1CC2(CN(C(=O)c3cnn(Cc4ccccc4)c3)C[C@H]2C(=O)NCc2ccc(O)nn2)C1` [I-400], the IC50 is > 10000 nM.

In the case of `CNC(=O)[C@@H](NC(=O)[C@@H]1CN(C(=O)c2cnn(Cc3ccccc3)c2)CC12CN(C(=O)[C@H]1CC1(C)C)C2)C1(OCC2CCCCC2)CC1` [I-396], the IC50 is ≤ 10 nM.

For `CNC(=O)[C@@H](NC(=O)[C@H]1CN(C(=O)c2cn[nH]c2)CC12CN(C(=O)[C@H]1CC1(C)C)C2)[C@@H](C)OCC1CCCCC1` [I-66B], the IC50 was 1000 to 10000 nM.

Turning to `C[C@@H](OCC1CCCCC1)C(NC(=O)[C@@H]1CN(C(=O)c2cncs2)CC12CN(C(=O)[C@H]1CC1(C)C)C2)c1nnco1` (stereo in doubt) [I-415, (S)—N-((1S,2R)-2-(cyclohexylmethoxy)-1-(1,3,4-oxadiazol-2-yl)propyl)-2-((S)-2,2-dimethylcyclopropane-1-carbonyl)-6-(thiazole-5-carbonyl)-2,6-diazaspiro[3.4]octane-8-carboxamide], the IC50 lay in the range of 10 to 100 nM.

For `CNC(=O)[C@@H](NC(=O)[C@@H]1CN(C(=O)c2cnn(Cc3ccccc3)c2)CC12CN(C(=O)[C@H]1CC1(C)C)C2)[C@@H](C)OCc1cccc(O)c1` [I-262], the IC50 fell in the range of 100 to 1000 nM.

On to `COCCNC(=O)[C@@H]1CN(C(=O)c2cnn(Cc3ccccc3)c2)CC12CN(C(=O)[C@H]1CC1(C)C)C2` [I-122A], for which the IC50 is > 10000 nM.

For the compound `C[C@@H](OCC1CCCCC1)[C@H](NC(=O)[C@@H]1CN(C(=O)c2cncs2)CC12CN(C(=O)[C@H]1CC1(F)F)C2)C(=O)N1CCCCC1` [I-296], the IC50 was in the range of 10 to 100 nM.

With `CNC(=O)C(NC(=O)[C@@H]1CN(C(=O)c2cn[nH]c2)CC12CN(C(=O)[C@H]1CC1(C)C)C2)C(O)Cc1ccccc1` (some centres unmarked) [I-298], the IC50 was > 10000 nM.

On to `CNC(=O)C(NC(=O)[C@@H]1CN(C(=O)c2cncs2)CC12CN(C(=O)[C@H]1CC1(C)C)C2)c1cccc(N2CC3(CC(C(F)(F)F)C3)C2)n1` (some centres unmarked) [I-430], for which the IC50 was 100 to 1000 nM.

As to `CNC(=O)[C@@H](NC(=O)[C@H]1CN(C(=O)c2cnn(Cc3ccccc3)c2)CC12CN(C(=O)C(C)(C)F)C2)[C@@H](C)OCc1ccccc1` [I-90B], the IC50 was > 10000 nM.

For `C[C@@H](OCC12CCC(CC1)OC2)[C@H](NC(=O)[C@@H]1CN(C(=O)c2cncs2)CC12CN(C(=O)[C@H]1CC1(C)C)C2)C(=O)N1CCC2(CC1)CC2` [I-458], the IC50 was ≤ 10 nM.

Turning to `CNC(=O)[C@@H](NC(=O)[C@@H]1CN(C(=O)c2ccccn2)CC12CN(C(=O)[C@H]1CC1(C)C)C2)[C@@H](C)OCc1ccccc1` [I-45A], the IC50 is > 10000 nM.
